Data published in patent US11077102B2, “Multidose package, course and method of treatment for delivering predetermined multiple doses of a pharmaceutical” (BAUSCH HEALTH IRELAND LIMITED, priority 2009, dated 2021).

Test: Stability of formulation in multi-dose container (Rexam 2.05 mL Sof' Airless)
Type: physicochemical
Description: Once a candidate package is identified, stability trials are carried out to determine compatibility of the formulation with the container components. Testing is carried out on the formulation packed in the selected containers and stored under a number of controlled conditions (e.g., 40° C./75% RH and 25° C./60% RH) for a specified time up to the expiry date of the product. Tests will include determination of imiquimod content, preservative content, impurity content, appearance, microscopic examination, pH levels and visual container assessment against set standards.
Two batches of Aldara cream were dispensed into Rexam™ 2.05 mL Sof' Airless™ containers. The batches had been previously tested to determine the amount of preservatives (methyl hydroxybenzoate (MHB), propyl hydroxybenzoate (PHB) benzyl alcohol) and imiquimod, at the beginning of the study in Table 4 below.
The batches were stored under various conditions and then analyzed at 2 months, 4 months, 5.5 months and 13 months as shown in Tables 5 to 7 below. The presence of the contaminant 4-OH-R837 was also tested. NOTE: 4-OH-R837 is an Imiquimod impurity.

## CC(C)Cn1cnc2c(=O)[nH]c3ccccc3c21 [4 Hydroxy Imipquimod, 4-Hydroxyimiquimod]
Up to and including 13 months
  Impurity level in Aldara cream in multi-dose container: below detection limits

## OCc1ccccc1 [Benzyl alcohol, benzyl alcohol]
40 C/75% RH, up to 13 months, lower specification limit 1.00% w/w
  Benzyl alcohol levels in Aldara cream in multi-dose container: just below the lower specification limit

## COC(=O)c1ccc(O)cc1 [MHB, methyl hydroxybenzoate]
Up to and including 13 months, both 25 C/60% RH and 40 C/75% RH
  Stability in Aldara cream in multi-dose container: good stability
